± gives the expanded uncertainty stated by the source.
Legend:
[1] = 101.3 kPa, Liquid; for speed of sound: Frequency=3 MHz, Sing-around technique in a fixed-path interferometer; for mass density: Vibrating tube method
[2] = refractive index (Na D-line) (dimensionless); details: 101.3 kPa, Liquid, Standard Abbe refractometry
[3] = molar heat capacity at constant pressure; details: 101.33 kPa, Liquid, Small sample (50 mg) DSC
[4] = xn = mol fraction of the nth substance listed; details: 101.3 kPa, Liquid, x2 = 0; for speed of sound: Frequency=3 MHz, Sing-around technique in a fixed-path interferometer; for mass density: Vibrating tube method
[5] = refractive index (Na D-line) (dimensionless); xn = mol fraction of the nth substance listed; details: 101.3 kPa, Liquid, Standard Abbe refractometry, x2 = 0

COS(=O)(=O)[O-].Cn1cc[n+](C)c1 [1,3-dimethylimidazolium methylsulfate]
Details	mass density, [1] [kg/m3]	molar heat capacity at constant pressure, [3] [J/K/mol]	refractive index, [2]	speed of sound, [1] [m/s]
298 K	1329 ± 4	298.1 ± 40	1.483 ± 0.01	1811 ± 20
303 K	1322 ± 4	303.1 ± 40	1.481 ± 0.01	1799 ± 20
308 K	1319 ± 4	308 ± 40	1.48 ± 0.01	1787 ± 20
313 K	1315 ± 4	312.9 ± 40	1.479 ± 0.01	1775 ± 20

CCn1cc[n+](C)c1.COS(=O)(=O)[O-] [1-ethyl-3-methylimidazolium methylsulfate]
Details	mass density, [1] [kg/m3]	molar heat capacity at constant pressure, [3] [J/K/mol]	refractive index, [2]	speed of sound, [1] [m/s]
298 K	1292 ± 2	313.3 ± 40	1.48 ± 0.01	1762 ± 20
303 K	1289 ± 2	319.9 ± 40	1.479 ± 0.01	1750 ± 20
308 K	1285 ± 2	326.6 ± 40	1.478 ± 0.01	1739 ± 20
313 K	1282 ± 2	333.2 ± 40	1.476 ± 0.01	1727 ± 20

CCCCO [butan-1-ol]
Details	mass density, [1] [kg/m3]	refractive index, [2]	speed of sound, [1] [m/s]
298 K	806 ± 2	1.397 ± 0.01	1240 ± 20
303 K	802 ± 2	1.395 ± 0.01	1224 ± 20
308 K	798 ± 2	1.392 ± 0.01	1206 ± 20
313 K	794 ± 2	1.389 ± 0.01	1190 ± 20

CCCCO [butan-1-ol] + CCn1cc[n+](C)c1.COS(=O)(=O)[O-]
Details	mass density, [4] [kg/m3]	refractive index, [5]	speed of sound, [4] [m/s]
298 K	806 ± 2	1.397 ± 0.01	1240 ± 20
303 K	802 ± 2	1.395 ± 0.01	1224 ± 20
308 K	798 ± 2	1.392 ± 0.01	1206 ± 20
313 K	794 ± 2	1.389 ± 0.01	1190 ± 20

CCCCO [butan-1-ol] + COS(=O)(=O)[O-].Cn1cc[n+](C)c1
Details	mass density, [4] [kg/m3]	refractive index, [5]	speed of sound, [4] [m/s]
298 K	806 ± 2	1.397 ± 0.01	1240 ± 20
303 K	802 ± 2	1.395 ± 0.01	1224 ± 20
308 K	798 ± 2	1.392 ± 0.01	1206 ± 20
313 K	794 ± 2	1.389 ± 0.01	1190 ± 20

CCCCCO [pentan-1-ol]
Details	mass density, [1] [kg/m3]	refractive index, [2]	speed of sound, [1] [m/s]
298 K	811 ± 2	1.408 ± 0.01	1276 ± 20
303 K	807 ± 2	1.407 ± 0.01	1259 ± 20
308 K	803 ± 2	1.406 ± 0.01	1242 ± 20
313 K	800 ± 2	1.404 ± 0.01	1226 ± 20

CCCCCO [pentan-1-ol] + CCn1cc[n+](C)c1.COS(=O)(=O)[O-]
Details	mass density, [4] [kg/m3]	refractive index, [5]	speed of sound, [4] [m/s]
298 K	811 ± 2	1.408 ± 0.01	1276 ± 20
303 K	807 ± 2	1.407 ± 0.01	1259 ± 20
308 K	803 ± 2	1.406 ± 0.01	1242 ± 20
313 K	800 ± 2	1.404 ± 0.01	1226 ± 20

CCCCCO [pentan-1-ol] + COS(=O)(=O)[O-].Cn1cc[n+](C)c1
Details	mass density, [4] [kg/m3]	refractive index, [5]	speed of sound, [4] [m/s]
298 K	811 ± 2	1.408 ± 0.01	1276 ± 20
303 K	807 ± 2	1.407 ± 0.01	1259 ± 20
308 K	803 ± 2	1.406 ± 0.01	1242 ± 20
313 K	800 ± 2	1.404 ± 0.01	1226 ± 20

CCCO [propan-1-ol]
Details	mass density, [1] [kg/m3]	refractive index, [2]	speed of sound, [1] [m/s]
298 K	800 ± 2	1.383 ± 0.01	1208 ± 20
303 K	796 ± 2	1.382 ± 0.01	1191 ± 20
308 K	792 ± 2	1.38 ± 0.01	1174 ± 20
313 K	789 ± 2	1.378 ± 0.01	1158 ± 20

CCCO [propan-1-ol] + CCn1cc[n+](C)c1.COS(=O)(=O)[O-]
Details	mass density, [4] [kg/m3]	refractive index, [5]	speed of sound, [4] [m/s]
298 K	800 ± 2	1.383 ± 0.01	1208 ± 20
303 K	796 ± 2	1.382 ± 0.01	1191 ± 20
308 K	792 ± 2	1.38 ± 0.01	1174 ± 20
313 K	789 ± 2	1.378 ± 0.01	1158 ± 20

CCCO [propan-1-ol] + COS(=O)(=O)[O-].Cn1cc[n+](C)c1
Details	mass density, [4] [kg/m3]	refractive index, [5]	speed of sound, [4] [m/s]
298 K	800 ± 2	1.383 ± 0.01	1208 ± 20
303 K	796 ± 2	1.382 ± 0.01	1191 ± 20
308 K	792 ± 2	1.38 ± 0.01	1174 ± 20
313 K	789 ± 2	1.378 ± 0.01	1158 ± 20
